Data from PubChem BioAssay AID1963860 (Molecular Pharmacology Branch, DTP, NCI, 2024).

System: CN0375-F725-PDC KRAS spheroid viability
Assay: Anticancer human tumor CN0375-F725-PDC patient-derived colon carcinoma cell line growth inhibition [KRAS2]
Conditions: spheroids with HUVEC and MSC; for IC50: curve of first compound; for viability, T/C: stronger effect = lower value
Method in brief: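 Combination screen of spheroid viability in tumor-cell co-cultures with endothelial (HUVEC) and mesenchymal stem cell stroma. Each agent was tested in half-log dilutions, topping at clinical Cmax or at 10 microM without a known Cmax.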

[1] = second compound 0.1 µM, first compound 0.000316 µM
[2] = second compound 0.1 µM, first compound 0.001 µM
[3] = second compound 0.1 µM, first compound 0.00316 µM
[4] = second compound 0.1 µM, first compound 0.01 µM
[5] = second compound 0.1 µM, first compound 0.0316 µM
[6] = second compound 0.1 µM, first compound 0.1 µM
[7] = second compound 0.316 µM, first compound 0.000316 µM
[8] = second compound 0.316 µM, first compound 0.001 µM
[9] = second compound 0.316 µM, first compound 0.00316 µM
[10] = second compound 0.316 µM, first compound 0.01 µM
[11] = second compound 0.316 µM, first compound 0.0316 µM
[12] = second compound 0.316 µM, first compound 0.1 µM
[13] = second compound 1 µM, first compound 0.000316 µM
[14] = second compound 1 µM, first compound 0.001 µM
[15] = second compound 1 µM, first compound 0.00316 µM
[16] = second compound 1 µM, first compound 0.01 µM
[17] = second compound 1 µM, first compound 0.0316 µM
[18] = second compound 1 µM, first compound 0.1 µM
[19] = second compound 3.16 µM, first compound 0.000316 µM
[20] = second compound 3.16 µM, first compound 0.001 µM
[21] = second compound 3.16 µM, first compound 0.00316 µM
[22] = second compound 3.16 µM, first compound 0.01 µM
[23] = second compound 3.16 µM, first compound 0.0316 µM
[24] = second compound 3.16 µM, first compound 0.1 µM
[25] = second compound 10 µM, first compound 0.000316 µM
[26] = second compound 10 µM, first compound 0.001 µM
[27] = second compound 10 µM, first compound 0.00316 µM
[28] = second compound 10 µM, first compound 0.01 µM
[29] = second compound 10 µM, first compound 0.0316 µM
[30] = second compound 10 µM, first compound 0.1 µM
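Further: spheroids exposed to agents for 7 days.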

| Compound | IC50 (second compound 0.1 µM) | IC50 (second compound 0.316 µM) | IC50 (second compound 1 µM) | IC50 (second compound 3.16 µM) | IC50 (second compound 10 µM) | viability, T/C [1] | viability, T/C [2] | viability, T/C [3] | viability, T/C [4] | viability, T/C [5] | viability, T/C [6] | viability, T/C [7] | viability, T/C [8] | viability, T/C [9] | viability, T/C [10] | viability, T/C [11] | viability, T/C [12] | viability, T/C [13] | viability, T/C [14] | viability, T/C [15] | further results |
| --- | --- | --- | --- | --- | --- | --- | --- | --- | --- | --- | --- | --- | --- | --- | --- | --- | --- | --- | --- | --- | --- |
| CN(C)C/C=C/C(=O)Nc1cc2c(Nc3ccc(F)c(Cl)c3)ncnc2cc1O[C@H]1CCOC1 + C=CC(=O)N1CCN(c2nc(=O)n(-c3c(C)ccnc3C(C)C)c3nc(-c4c(O)cccc4F)c(F)cc23)C(C)C1 | > 100 nM | > 100 nM | > 100 nM | > 100 nM | > 100 nM | 103% | 93.5% | 86.3% | 83.5% | 81.4% | 76% | 111% | 106% | 84.2% | 81.4% | 74.9% | 74.9% | 108% | 106% | 84.7% | viability, T/C [16]: 87%; viability, T/C [17]: 82.9%; viability, T/C [18]: 81%; viability, T/C [19]: 108%; viability, T/C [20]: 109%; viability, T/C [21]: 89.9%; viability, T/C [22]: 82.4%; viability, T/C [23]: 81.2%; viability, T/C [24]: 75.5%; viability, T/C [25]: 103%; viability, T/C [26]: 107%; viability, T/C [27]: 87.9%; viability, T/C [28]: 77.7%; viability, T/C [29]: 78.6%; viability, T/C [30]: 76.7% |
| CC(C)n1nc(-c2ccc3oc(N)nc3c2)c2c(N)ncnc21 + C=CC(=O)N1CCN(c2nc(=O)n(-c3c(C)ccnc3C(C)C)c3nc(-c4c(O)cccc4F)c(F)cc23)C(C)C1 | 81.5 nM | 66.7 nM | 58.5 nM | 52.6 nM | 39.6 nM | 95.6% | 90% | 75.3% | 67.4% | 58.6% | 47.9% | 94% | 90.9% | 72% | 68.8% | 60.6% | 44.5% | 90.7% | 93.2% | 75.1% | viability, T/C [16]: 64.8%; viability, T/C [17]: 56.5%; viability, T/C [18]: 45.3%; viability, T/C [19]: 93.9%; viability, T/C [20]: 91.7%; viability, T/C [21]: 77.2%; viability, T/C [22]: 64.5%; viability, T/C [23]: 55.5%; viability, T/C [24]: 44.6%; viability, T/C [25]: 87.4%; viability, T/C [26]: 77.9%; viability, T/C [27]: 68.9%; viability, T/C [28]: 58.2%; viability, T/C [29]: 51.3%; viability, T/C [30]: 45.2% |
